Values belong to the compound of their own block, whether it stands above or below them.
Test system: 276233-004-R-J1-PDC complex spheroid viability
Test: Anticancer human tumor 276233-004-R-J1-PDC patient-derived colon adenocarcinoma cell line growth inhibition [GQUAD]
Details: for IC50: curve of first compound; for viability, T/C: stronger effect = lower value
Method in brief: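 Tumor cells were grown as complex spheroids with HUVEC endothelial cells and mesenchymal stem cells as stroma. G-quadruplex stabilizers were combined with targeted agents over half-log dilutions from near the clinical Cmax, or from 10 microM.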

[1] = second compound 0.0316 µM, first compound 0.0316 µM
[2] = second compound 0.0316 µM, first compound 0.1 µM
[3] = second compound 0.0316 µM, first compound 0.316 µM
[4] = second compound 0.0316 µM, first compound 1 µM
[5] = second compound 0.0316 µM, first compound 3.16 µM
[6] = second compound 0.0316 µM, first compound 10 µM
[7] = second compound 0.1 µM, first compound 0.0316 µM
[8] = second compound 0.1 µM, first compound 0.1 µM
[9] = second compound 0.1 µM, first compound 0.316 µM
[10] = second compound 0.1 µM, first compound 1 µM
[11] = second compound 0.1 µM, first compound 3.16 µM
[12] = second compound 0.1 µM, first compound 10 µM
[13] = second compound 0.316 µM, first compound 0.0316 µM
[14] = second compound 0.316 µM, first compound 0.1 µM
[15] = second compound 0.316 µM, first compound 0.316 µM
[16] = second compound 0.316 µM, first compound 1 µM
[17] = second compound 0.316 µM, first compound 3.16 µM
[18] = second compound 0.316 µM, first compound 10 µM
[19] = second compound 1 µM, first compound 0.0316 µM
[20] = second compound 1 µM, first compound 0.1 µM
[21] = second compound 1 µM, first compound 0.316 µM
[22] = second compound 1 µM, first compound 1 µM
[23] = second compound 1 µM, first compound 3.16 µM
[24] = second compound 1 µM, first compound 10 µM
[25] = second compound 3.16 µM, first compound 0.0316 µM
[26] = second compound 3.16 µM, first compound 0.1 µM
[27] = second compound 3.16 µM, first compound 0.316 µM
[28] = second compound 3.16 µM, first compound 1 µM
[29] = second compound 3.16 µM, first compound 3.16 µM
[30] = second compound 3.16 µM, first compound 10 µM
[31] = second compound 10 µM, first compound 0.0316 µM
[32] = second compound 10 µM, first compound 0.1 µM
[33] = second compound 10 µM, first compound 0.316 µM
[34] = second compound 10 µM, first compound 1 µM
[35] = second compound 10 µM, first compound 3.16 µM
[36] = second compound 10 µM, first compound 10 µM
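Further: spheroids exposed to drugs for seven days.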
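Wherever viability, T/C is given: 100% = DMSO vehicle control viability.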

IC50 (second compound 0.0316 µM): 8.71 µM | IC50 (second compound 0.1 µM): > 10 µM | IC50 (second compound 0.316 µM): 4.4 µM | IC50 (second compound 1 µM): 2.53 µM | IC50 (second compound 3.16 µM): 1.77 µM | IC50 (second compound 10 µM): 0.709 µM
SMILES: COc1ccc([C@@H](O)c2cc(-c3ncnc4cc(N5CCOCC5)ccc34)c(F)cc2Cl)nn1 + Cc1cnc(CNC(=O)c2c(=O)c3ccc(N4CCCN(C)CC4)nc3n3c2sc2ccccc23)cn1
viability, T/C [1]: 75.2% | viability, T/C [2]: 81.5% | viability, T/C [3]: 79.3% | viability, T/C [4]: 68.8% | viability, T/C [5]: 60.6% | viability, T/C [6]: 48.4% | viability, T/C [7]: 78.7% | viability, T/C [8]: 73.9% | viability, T/C [9]: 70.2% | viability, T/C [10]: 73.8% | viability, T/C [11]: 69.6% | viability, T/C [12]: 55.1% | viability, T/C [13]: 74.4% | viability, T/C [14]: 87.7% | viability, T/C [15]: 83.9% | viability, T/C [16]: 71% | viability, T/C [17]: 55.1% | viability, T/C [18]: 39.3% | viability, T/C [19]: 73.6% | viability, T/C [20]: 77.9% | viability, T/C [21]: 75.2% | viability, T/C [22]: 63% | viability, T/C [23]: 47.4% | viability, T/C [24]: 33.7% | viability, T/C [25]: 69.2% | viability, T/C [26]: 69.3% | viability, T/C [27]: 70% | viability, T/C [28]: 56.2% | viability, T/C [29]: 43.1% | viability, T/C [30]: 34% | viability, T/C [31]: 65% | viability, T/C [32]: 58.1% | viability, T/C [33]: 70% | viability, T/C [34]: 43.9% | viability, T/C [35]: 43.2% | viability, T/C [36]: 30.9%

SMILES: O=c1[nH]cc(F)c(=O)[nH]1 + Cc1[nH]c2ccc(F)cc2c1-c1nc2c3cccnc3c3ncccc3c2[nH]1
IC50 (second compound 0.0316 µM): > 10 µM | IC50 (second compound 0.1 µM): > 10 µM | IC50 (second compound 0.316 µM): > 10 µM | IC50 (second compound 1 µM): > 10 µM | IC50 (second compound 3.16 µM): > 10 µM | IC50 (second compound 10 µM): < 0.0316 µM | viability, T/C [1]: 71.4% | viability, T/C [2]: 85.6% | viability, T/C [3]: 92.9% | viability, T/C [4]: 76.8% | viability, T/C [5]: 77.5% | viability, T/C [6]: 100% | viability, T/C [7]: 79.3% | viability, T/C [8]: 97.2% | viability, T/C [9]: 88.9% | viability, T/C [10]: 82.7% | viability, T/C [11]: 83% | viability, T/C [12]: 80% | viability, T/C [13]: 75.7% | viability, T/C [14]: 91.2% | viability, T/C [15]: 80.4% | viability, T/C [16]: 94% | viability, T/C [17]: 74.5% | viability, T/C [18]: 85.3% | viability, T/C [19]: 57.3% | viability, T/C [20]: 63% | viability, T/C [21]: 73.1% | viability, T/C [22]: 65.6% | viability, T/C [23]: 70.8% | viability, T/C [24]: 73.3% | viability, T/C [25]: 54.6% | viability, T/C [26]: 49.9% | viability, T/C [27]: 48.5% | viability, T/C [28]: 48% | viability, T/C [29]: 53.8% | viability, T/C [30]: 51.9% | viability, T/C [31]: 41.2% | viability, T/C [32]: 46.7% | viability, T/C [33]: 43.2% | viability, T/C [34]: 44.5% | viability, T/C [35]: 45.3% | viability, T/C [36]: 42.9%

IC50 (second compound 0.0316 µM): > 10 µM | IC50 (second compound 0.1 µM): > 10 µM | IC50 (second compound 0.316 µM): > 10 µM | IC50 (second compound 1 µM): > 10 µM | IC50 (second compound 3.16 µM): > 10 µM | IC50 (second compound 10 µM): > 10 µM
SMILES: O=c1[nH]cc(F)c(=O)[nH]1 + Cc1cnc(CNC(=O)c2c(=O)c3ccc(N4CCCN(C)CC4)nc3n3c2sc2ccccc23)cn1
viability, T/C [1]: 86.8% | viability, T/C [2]: 82.2% | viability, T/C [3]: 90.7% | viability, T/C [4]: 81.2% | viability, T/C [5]: 98.8% | viability, T/C [6]: 97.5% | viability, T/C [7]: 97.1% | viability, T/C [8]: 96.5% | viability, T/C [9]: 89.1% | viability, T/C [10]: 89.7% | viability, T/C [11]: 95.1% | viability, T/C [12]: 102% | viability, T/C [13]: 87.4% | viability, T/C [14]: 99.8% | viability, T/C [15]: 99.1% | viability, T/C [16]: 85.6% | viability, T/C [17]: 98.6% | viability, T/C [18]: 99.1% | viability, T/C [19]: 78.2% | viability, T/C [20]: 87.6% | viability, T/C [21]: 80.4% | viability, T/C [22]: 90% | viability, T/C [23]: 92.7% | viability, T/C [24]: 94.4% | viability, T/C [25]: 82.7% | viability, T/C [26]: 74.9% | viability, T/C [27]: 79.2% | viability, T/C [28]: 82.8% | viability, T/C [29]: 83.7% | viability, T/C [30]: 82.2% | viability, T/C [31]: 69.8% | viability, T/C [32]: 79.3% | viability, T/C [33]: 80.5% | viability, T/C [34]: 86.2% | viability, T/C [35]: 61.8% | viability, T/C [36]: 79.6%

Source: PubChem BioAssay AID2060496 (Molecular Pharmacology Branch, DTP, NCI, 2025)
